Common to all, as to type: biochemical
For assay [1], the target named is Human plasma kallikrein (Homo sapiens (Human), UniProt P03952). Description: Determination of the IC50 for plasma kallikrein (fluorogenic substrate H-DPro-Phe-Arg-AFC). Particulars: class symbols A-D, read-out: IC50 (human PKal). The procedure: The ability of the compounds of formula (I) to inhibit plasma kallikrein may be determined using the following biological assay:
Determination of the IC50 for Plasma Kallikrein
Plasma kallikrein inhibitory activity in vitro was determined using standard published methods (see e.g. Johansen et al., Int. J. Tiss. Reac. 1986, 8, 185; Shori et al., Biochem. Pharmacol., 1992, 43, 1209; Sturzebecher et al., Biol. Chem. Hoppe-Seyler, 1992, 373, 1025). Human plasma kallikrein (Protogen) was incubated at 25° C. with the fluorogenic substrate H-DPro-Phe-Arg-AFC and various concentrations of the test compound. Residual enzyme activity (initial rate of reaction) was determined by measuring the change in optical absorbance at 410 nm and the IC50 value for the test compound was determined.

Assay [2] has as its target Human FXIa (Homo sapiens (Human), UniProt P03951). Description: Determination of the % inhibition for FXIa (fluorogenic substrate Z-Gly-Pro-Arg-AFC; 40 μM or IC50). The procedure: Selected compounds were further screened for inhibitory activity against the related enzyme FXIa. The ability of the compounds of formula (I) to inhibit FXIa may be determined using the following biological assay:
Determination of the % Inhibition for FXIa
FXIa inhibitory activity in vitro was determined using standard published methods (see e.g. Johansen et al., Int. J. Tiss. Reac. 1986, 8, 185; Shori et al., Biochem. Pharmacol., 1992, 43, 1209; Sturzebecher et al., Biol. Chem. Hoppe-Seyler, 1992, 373, 1025). Human FXIa (Enzyme Research Laboratories) was incubated at 25° C. with the fluorogenic substrate Z-Gly-Pro-Arg-AFC and 40 μM of the test compound (or alternatively at various concentrations of the test compound in order to determine IC50). Residual enzyme activity (initial rate of reaction) was determined by measuring the change in optical absorbance at 410 nm and the IC50 value for the test compound was determined.

The target of assay [3] is Human KLK1 (Homo sapiens (Human), UniProt P06870). Description: Determination of the IC50 for KLK1 (fluorogenic substrate H-DVal-Leu-Arg-AFC). The procedure: Selected compounds were further screened for inhibitory activity against the related enzyme KLK1. The ability of the compounds of formula (I) to inhibit KLK1 may be determined using the following biological assay:
Determination of the IC50 for KLK1
KLK1 inhibitory activity in vitro was determined using standard published methods (see e.g. Johansen et al., Int. J. Tiss. Reac. 1986, 8, 185; Shori et al., Biochem. Pharmacol., 1992, 43, 1209; Sturzebecher et al., Biol. Chem. Hoppe-Seyler, 1992, 373, 1025). Human KLK1 (Callbiochem) was incubated at 25° C. with the fluorogenic substrate H-DVal-Leu-Arg-AFC and various concentrations of the test compound. Residual enzyme activity (initial rate of reaction) was determined by measuring the change in optical absorbance at 410 nm and the IC50 value for the test compound was determined.

A value given as a limit tells only on which side of the number the result lay.

IC50 data for 18 compounds are collected here from patent publication US11613527B2, “Enzyme inhibitors” (KalVista Pharmaceuticals Limited, priority 2019, dated 2023).

Broadly, the IC50 is the concentration needed to halve the response being measured.

Sequence of Human FXIa (P03951 388-625): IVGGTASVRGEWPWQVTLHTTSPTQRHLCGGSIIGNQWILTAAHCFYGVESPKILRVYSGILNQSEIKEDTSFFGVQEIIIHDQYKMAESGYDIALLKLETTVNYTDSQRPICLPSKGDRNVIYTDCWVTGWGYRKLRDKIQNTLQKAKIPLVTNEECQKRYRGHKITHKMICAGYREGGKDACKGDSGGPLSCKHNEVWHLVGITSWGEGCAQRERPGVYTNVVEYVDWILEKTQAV
Sequence of Human FXIa (P03951 19-387 partner): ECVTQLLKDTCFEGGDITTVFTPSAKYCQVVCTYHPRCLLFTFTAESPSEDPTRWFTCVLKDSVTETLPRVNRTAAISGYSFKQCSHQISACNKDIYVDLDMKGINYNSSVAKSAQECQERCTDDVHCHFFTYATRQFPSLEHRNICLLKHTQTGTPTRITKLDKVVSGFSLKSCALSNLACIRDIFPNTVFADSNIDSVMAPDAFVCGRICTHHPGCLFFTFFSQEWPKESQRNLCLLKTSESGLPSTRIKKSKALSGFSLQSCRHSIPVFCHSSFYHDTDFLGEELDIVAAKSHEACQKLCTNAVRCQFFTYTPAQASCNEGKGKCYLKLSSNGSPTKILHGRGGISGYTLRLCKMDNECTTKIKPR
Sequence of Human plasma kallikrein (P03952 391-638): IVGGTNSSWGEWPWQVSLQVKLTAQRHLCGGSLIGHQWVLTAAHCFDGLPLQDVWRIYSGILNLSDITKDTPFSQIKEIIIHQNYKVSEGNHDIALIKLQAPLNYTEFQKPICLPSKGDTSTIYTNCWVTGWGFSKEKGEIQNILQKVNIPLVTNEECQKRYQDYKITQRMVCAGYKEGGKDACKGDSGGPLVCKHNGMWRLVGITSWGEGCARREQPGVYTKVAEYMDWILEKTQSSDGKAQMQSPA
Sequence of Human plasma kallikrein (P03952 20-390 partner): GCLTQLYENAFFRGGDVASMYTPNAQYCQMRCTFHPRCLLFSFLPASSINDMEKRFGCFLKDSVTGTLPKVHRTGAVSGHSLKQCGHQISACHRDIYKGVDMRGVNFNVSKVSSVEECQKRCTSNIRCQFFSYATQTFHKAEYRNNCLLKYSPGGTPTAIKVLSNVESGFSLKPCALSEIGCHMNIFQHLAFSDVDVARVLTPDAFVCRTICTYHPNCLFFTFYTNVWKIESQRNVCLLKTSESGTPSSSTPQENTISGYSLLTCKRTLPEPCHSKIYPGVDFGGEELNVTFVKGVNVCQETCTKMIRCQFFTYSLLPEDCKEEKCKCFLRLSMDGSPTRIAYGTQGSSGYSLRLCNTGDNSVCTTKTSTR
Sequence of Human KLK1 (P06870 25-262): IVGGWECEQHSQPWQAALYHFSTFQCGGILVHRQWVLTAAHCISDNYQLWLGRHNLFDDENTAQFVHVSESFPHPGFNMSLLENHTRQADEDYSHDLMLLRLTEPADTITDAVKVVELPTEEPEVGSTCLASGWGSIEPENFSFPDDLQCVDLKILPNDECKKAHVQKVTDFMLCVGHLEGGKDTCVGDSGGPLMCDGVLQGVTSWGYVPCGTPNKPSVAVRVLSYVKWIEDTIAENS

With `COc1ccc(-n2cc(C)nn2)c(CNC(=O)c2cnn(Cc3ccc4c(c3)CN(C)CC4)c2)c1F` [Example 3, N-{[2-fluoro-3-methoxy-6-(4-methyl-1,2,3-triazol-1-yl)phenyl]methyl}-1-[(2-methyl-3,4-dihydro-1H-isoquinolin-7-yl)methyl]pyrazole-4-carboxamide], the IC50 in assay [1] is < 0.01 µM; in assay [2], > 40 µM; in assay [3] it was > 40 µM.

As for `CCc1ncn(-c2ccc(OC)c(F)c2CNC(=O)c2cn(Cc3ccc4c(c3)CN(C)CC4)nc2COC)n1` [Example 6, N-{[6-(3-ethyl-1,2,4-triazol-1-yl)-2-fluoro-3-methoxyphenyl]methyl}-3-(methoxymethyl)-1-[(2-methyl-3,4-dihydro-1H-isoquinolin-7-yl)methyl]pyrazole-4-carboxamide], the IC50 in assay [1] is < 0.01 µM; in assay [2], > 40 µM; in assay [3], > 40 µM.

Consider `COCc1nn(Cc2ccc3c(c2)CN(C)CC3)cc1C(=O)NCc1c(-n2cncn2)ccc(OC)c1F` [Example 7, N-{[2-fluoro-3-methoxy-6-(1,2,4-triazol-1-yl)phenyl]methyl}-3-(methoxymethyl)-1-[(2-methyl-3,4-dihydro-1H-isoquinolin-7-yl)methyl]pyrazole-4-carboxamide], for which the IC50 was < 0.01 µM in assay [1], > 40 µM in assay [2] and > 40 µM in assay [3].

As for `COCc1nn(Cc2ccc3c(c2)CN(C)CC3)cc1C(=O)NCc1c(-n2ccc(C(F)(F)F)n2)ccc(OC)c1F` [Example 8, N-({2-fluoro-3-methoxy-6-[3-(trifluoromethyl)pyrazol-1-yl]phenyl}methyl)-3-(methoxymethyl)-1-[(2-methyl-3,4-dihydro-1H-isoquinolin-7-yl)methyl]pyrazole-4-carboxamide], the values for the IC50 in assay [1], in assay [2] and in assay [3] were 0.01 to 0.03 µM, > 40 µM and > 40 µM, respectively.

For `COCc1nn(Cc2ccc3c(c2)CN(C)CC3)cc1C(=O)NCc1c(-n2ccc(C3CC3)n2)ccc(OC)c1F` [Example 9, N-{[6-(3-cyclopropylpyrazol-1-yl)-2-fluoro-3-methoxyphenyl]methyl}-3-(methoxymethyl)-1-[(2-methyl-3,4-dihydro-1H-isoquinolin-7-yl)methyl]pyrazole-4-carboxamide], the IC50 was 0.03 to 0.1 µM in assay [1], > 40 µM in assay [2] and > 40 µM in assay [3].

For the compound `COCc1nn(Cc2ccc3c(c2)CN(C)CC3)cc1C(=O)NCc1c(-n2ncnc2C)ccc(OC)c1F` [Example 12, N-{[2-fluoro-3-methoxy-6-(5-methyl-1,2,4-triazol-1-yl)phenyl]methyl}-3-(methoxymethyl)-1-[(2-methyl-3,4-dihydro-1H-isoquinolin-7-yl)methyl]pyrazole-4-carboxamide], the figures for the IC50 in assay [1], in assay [2] and in assay [3] were < 0.01 µM, > 40 µM and > 40 µM, respectively.

Consider `COCc1nn(Cc2ccc3c(c2)CN(C2CC2)CC3)cc1C(=O)NCc1c(-n2cc(C)nn2)ccc(OC)c1F` [Example 14, 1-[(2-cyclopropyl-3,4-dihydro-1H-isoquinolin-7-yl)methyl]-N-{[2-fluoro-3-methoxy-6-(4-methyl-1,2,3-triazol-1-yl)phenyl]methyl}-3-(methoxymethyl)pyrazole-4-carboxamide], for which the IC50 was < 0.01 µM in assay [1], 28.1 µM in assay [2] and > 40 µM in assay [3].

With `CCN1CCc2ccc(Cn3cc(C(=O)NCc4c(-n5cc(C)nn5)ccc(OC)c4F)c(COC)n3)cc2C1` [Example 16, 1-[(2-ethyl-3,4-dihydro-1H-isoquinolin-7-yl)methyl]-N-{[2-fluoro-3-methoxy-6-(4-methyl-1,2,3-triazol-1-yl)phenyl]methyl}-3-(methoxymethyl)pyrazole-4-carboxamide], the IC50 in assay [1] is < 0.01 µM; in assay [2] it was > 40 µM; in assay [3], > 40 µM.

For the compound `COCc1nn(Cc2ccc3c(c2)CN(C(C)C)CC3)cc1C(=O)NCc1c(-n2cc(C)nn2)ccc(OC)c1F` [Example 17, N-{[2-fluoro-3-methoxy-6-(4-methyl-1,2,3-triazol-1-yl)phenyl]methyl}-1-[(2-isopropyl-3,4-dihydro-1H-isoquinolin-7-yl)methyl]-3-(methoxymethyl)pyrazole-4-carboxamide], the 50% inhibitory concentration (IC50) in assay [1] is < 0.01 µM; in assay [2], > 40 µM; in assay [3] it was > 40 µM.

`COCc1nn(Cc2ccc3c(c2)CN(C2CCC2)CC3)cc1C(=O)NCc1c(-n2cc(C)nn2)ccc(OC)c1F` [Example 18, 1-((2-cyclobutyl-1,2,3,4-tetrahydroisoquinolin-7-yl)methyl)-N-(2-fluoro-3-methoxy-6-(4-methyl-1H-1,2,3-triazol-1-yl)benzyl)-3-(methoxymethyl)-1H-pyrazole-4-carboxamide]: the concentration for half-maximal inhibition (IC50) in assay [1] is < 0.01 µM; in assay [2], > 40 µM; in assay [3] it was > 40 µM.

Regarding `COCc1nn(Cc2ccc3c(c2)CN(C2CC2)CC3)cc1C(=O)NCc1c(-n2cnc(C(F)F)n2)ccc(OC)c1F` [Example 19, 1-[(2-cyclopropyl-3,4-dihydro-1H-isoquinolin-7-yl)methyl]-N-({6-[3-(difluoromethyl)-1,2,4-triazol-1-yl]-2-fluoro-3-methoxyphenyl}methyl)-3-(methoxymethyl)pyrazole-4-carboxamide], the concentration for half-maximal inhibition (IC50) in assay [1] is < 0.01 µM; in assay [2] it was > 40 µM; in assay [3], > 40 µM.

Consider `COCc1nn(Cc2ccc3c(c2)CN(C2CC2)CC3)cc1C(=O)NCc1c(-n2cnc(C(F)(F)F)n2)ccc(OC)c1F` [Example 20, 1-[(2-cyclopropyl-3,4-dihydro-1H-isoquinolin-7-yl)methyl]-N-({2-fluoro-3-methoxy-6-[3-(trifluoromethyl)-1,2,4-triazol-1-yl]phenyl}methyl)-3-(methoxymethyl)pyrazole-4-carboxamide], for which the IC50 in assay [1] was 0.01 to 0.03 µM; in assay [2], > 40 µM; in assay [3] it was > 40 µM.

As for `COCc1nn(Cc2ccc3c(c2)CN(C2CC2)CC3)cc1C(=O)NCc1c(-n2ccc(C#N)n2)ccc(OC)c1F` [Example 21, N-{[6-(3-cyanopyrazol-1-yl)-2-fluoro-3-methoxyphenyl]methyl}-1-[(2-cyclopropyl-3,4-dihydro-1H-isoquinolin-7-yl)methyl]-3-(methoxymethyl)pyrazole-4-carboxamide], the figures for the half-inhibitory concentration (IC50) in assay [1], in assay [2] and in assay [3] were < 0.01 µM, 36.8 µM and > 40 µM, respectively.

As to `COc1ccc(-n2cc(C)nn2)c(CNC(=O)c2cn(Cc3ccc4c(c3)CN(C)CC4)nc2C(F)F)c1F` [Example 33, 3-(difluoromethyl)-N-{[2-fluoro-3-methoxy-6-(4-methyl-1,2,3-triazol-1-yl)phenyl]methyl}-1-[(2-methyl-3,4-dihydro-1H-isoquinolin-7-yl)methyl]pyrazole-4-carboxamide], the IC50 in assay [1] is < 0.01 µM.

For the compound `COCc1nn(Cc2ccc3c(c2)C(C)(C)NCC3)cc1C(=O)NCc1c(-n2cc(C)nn2)ccc(OC)c1F` [Example 128, 1-[(1,1-dimethyl-3,4-dihydro-2H-isoquinolin-7-yl)methyl]-N-{[2-fluoro-3-methoxy-6-(4-methyl-1,2,3-triazol-1-yl)phenyl]methyl}-3-(methoxymethyl)pyrazole-4-carboxamide], in assay [1], the 50% inhibitory concentration (IC50) was in the range of 0.03 to 0.1 µM.

For `COCc1nn(Cc2ccc3c(c2)C(C)(C)N(C)CC3)cc1C(=O)NCc1c(-n2cc(C)nn2)ccc(OC)c1F` [Example 129, N-{[2-fluoro-3-methoxy-6-(4-methyl-1,2,3-triazol-1-yl)phenyl]methyl}-3-(methoxymethyl)-1-[(1,1,2-trimethyl-3,4-dihydroisoquinolin-7-yl)methyl]pyrazole-4-carboxamide], in assay [1], the half-maximal inhibitory concentration (IC50) is 0.01 to 0.03 µM.

As for `COCc1nn(Cc2ccc3c(c2)CNCC3(C)C)cc1C(=O)NCc1c(-n2cc(C)nn2)ccc(OC)c1F` [Example 130, 1-[(4,4-dimethyl-2,3-dihydro-1H-isoquinolin-7-yl)methyl]-N-{[2-fluoro-3-methoxy-6-(4-methyl-1,2,3-triazol-1-yl)phenyl]methyl}-3-(methoxymethyl)pyrazole-4-carboxamide], in assay [1], the IC50 is 0.01 to 0.03 µM.

As to `COc1ccc(-n2cc(C)nn2)c(CNC(=O)c2cn(Cc3ccc4c(n3)CN(C)CC4)nc2C(F)(F)F)c1F` [Example 131, N-{[2-fluoro-3-methoxy-6-(4-methyl-1H-1,2,3-triazol-1-yl)phenyl]methyl}-1-[(7-methyl-5,6,7,8-tetrahydro-1,7-naphthyridin-2-yl)methyl]-3-(trifluoromethyl)-1H-pyrazole-4-carboxamide], the IC50 in assay [1] was 0.01 to 0.03 µM.
